Drawing on patent publication US10618903B2, “Heteroaryl substituted aminopyridine compounds” (BRISTOL-MYERS SQUIBB COMPANY, priority 2015, dated 2020), this text covers IC50 for 28 compounds.

Structures are written as SMILES. pIC50: −log10 of the molar value.

Chain of IRAK4 (Q9NWZ3 whole entry): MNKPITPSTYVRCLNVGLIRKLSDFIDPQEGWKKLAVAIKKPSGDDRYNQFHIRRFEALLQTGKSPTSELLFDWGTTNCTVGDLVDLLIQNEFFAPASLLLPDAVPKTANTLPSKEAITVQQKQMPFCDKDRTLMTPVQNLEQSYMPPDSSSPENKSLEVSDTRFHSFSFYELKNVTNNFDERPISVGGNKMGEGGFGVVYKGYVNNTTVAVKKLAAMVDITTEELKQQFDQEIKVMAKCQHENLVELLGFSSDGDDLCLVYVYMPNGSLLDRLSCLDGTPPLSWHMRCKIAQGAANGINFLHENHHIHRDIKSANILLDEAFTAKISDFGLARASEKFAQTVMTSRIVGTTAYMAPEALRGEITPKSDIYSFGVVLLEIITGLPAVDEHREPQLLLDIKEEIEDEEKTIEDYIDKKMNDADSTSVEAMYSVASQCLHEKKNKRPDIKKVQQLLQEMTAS

In the assay the target is IRAK4 (Homo sapiens (Human), UniProt Q9NWZ3). The assay can be described thus: IRAK4 Inhibition Assay. The format is biochemical. To be noted: ATP 500 μM; IRAK4 0.6 nM. Here is the method:
The assays were performed in U-bottom 384-well plates. The final assay volume was 30 μL prepared from 15 μL additions of enzyme and substrates (fluoresceinated peptide and ATP) and test compounds in assay buffer (20 mM HEPES pH 7.2, 10 mM MgCl2, 0.015% Brij 35 and 4 mM DTT). The reaction was initiated by the combination of IRAK4 with substrates and test compounds. The reaction mixture was incubated at room temperature for 60 min. and terminated by adding 45 μL of 35 mM EDTA to each sample. The reaction mixture was analyzed on the Caliper LABCHIP® 3000 (Caliper, Hopkinton, Mass.) by electrophoretic separation of the fluorescent substrate and phosphorylated product. Inhibition data were calculated by comparison to no enzyme control reactions for 100% inhibition and vehicle-only reactions for 0% inhibition. The final concentrations of reagents in the assays are ATP, 500 μM; FL-IPTSPITTTYFFFKKK peptide 1.5 μM; IRAK4, 0.6 nM; and DMSO, 1.6%.
The pIC50 is the negative decadic logarithm of the IC50, by convention in mol/L. Turning to `CC(C)(O)[C@H](F)CNC(=O)c1cnc(-c2cnn3cc(Cl)cnc23)cc1N[C@@H]1CCN(c2ncc(F)cn2)C1` [Example 36, 6-(6-chloropyrazolo[1,5-a]pyrimidin-3-yl)-N—((R)-2-fluoro-3-hydroxy-3-methylbutyl)-4-(((R)-1-(5-fluoropyrimidin-2-yl)pyrrolidin-3-yl)amino)nicotinamide], the pIC50 was 8.30. On to `CNC(=O)Cn1cc(NC(=O)c2cnc(-c3cnn4cc(Cl)cnc34)cc2NC(C)C)cn1` [Example 45, 6-(6-chloropyrazolo[1,5-a]pyrimidin-3-yl)-4-(isopropylamino)-N-(1-(2-(methylamino)-2-oxoethyl)-1H-pyrazol-4-yl)nicotinamide], for which the pIC50 is 7.47. For `CC(C)(O)[C@H](F)CNC(=O)c1cnc(-c2cnn3cc(Cl)cnc23)cc1NC1CCC(F)C1` (stereo partly drawn) [Example 86, 6-(6-chloropyrazolo[1,5-a]pyrimidin-3-yl)-N—((R)-2-fluoro-3-hydroxy-3-methylbutyl)-4-((3-fluorocyclopentyl)amino)nicotinamide], the pIC50 is 8.40. In the case of `CNC(=O)[C@H]1CC[C@H](NC(=O)c2cnc(-c3cnn4cc(C#N)cnc34)cc2NC(C)C)CC1` [Example 88, 6-(6-cyanopyrazolo[1,5-a]pyrimidin-3-yl)-4-(isopropylamino)-N-((1r,4r)-4-(methylcarbamoyl)cyclohexyl)nicotinamide] it was 7.47; in that of `CC(C)(O)[C@H](F)CNC(=O)c1cnc(-c2cnn3cc(Cl)cnc23)cc1NC1CCOC1` (stereo partly drawn) [Example 53, 6-(6-chloropyrazolo[1,5-a]pyrimidin-3-yl)-N—((R)-2-fluoro-3-hydroxy-3-methylbutyl)-4-((tetrahydrofuran-3-yl)amino)nicotinamide], 8.40; in that of `CC(C)Nc1cc(-c2cnc3ccc(N4CC[C@@H](O)C4)nn23)ncc1C(=O)NC[C@@H](F)C(C)(C)O` [Example 152, N—((R)-2-fluoro-3-hydroxy-3-methylbutyl)-6-(6-((R)-3-hydroxypyrrolidin-1-yl)imidazo[1,2-b]pyridazin-3-yl)-4-(isopropylamino)nicotinamide], 7.54. In the case of `CC(C)Nc1cc(-c2cnn3cc(Cl)cnc23)ncc1C(=O)NCC(=O)N1CCC2(CCO2)CC1` [Example 63, 6-(6-chloropyrazolo[1,5-a]pyrimidin-3-yl)-4-(isopropylamino)-N-(2-oxo-2-(1-oxa-7-azaspiro[3.5]nonan-7-yl)ethyl)nicotinamide], the pIC50 is 8.10. Take `CC[C@H](O)CNc1cc(-c2cnn3cc(Cl)cnc23)ncc1C(=O)NC[C@@H](F)C(C)(C)O` [Example 81, 6-(6-chloropyrazolo[1,5-a]pyrimidin-3-yl)-N—((R)-2-fluoro-3-hydroxy-3-methylbutyl)-4-(((S)-2-hydroxybutyl)amino)nicotinamide]: the pIC50 was 7.59. As for `CC(C)Nc1cc(-c2cnn3cc(F)c(N)nc23)ncc1C(=O)NC[C@@H](F)C(C)(C)O` [Example 129, (R)-6-(5-amino-6-fluoropyrazolo[1,5-a]pyrimidin-3-yl)-N-(2-fluoro-3-hydroxy-3-methylbutyl)-4-(isopropylamino)nicotinamide], the negative-log IC50 (pIC50) was 8.52. As for `CC(C)(O)[C@H](F)CNC(=O)c1cnc(-c2cnn3cc(C#N)cnc23)cc1NCC1(O)CCCOC1` (single isomer, unassigned) [Example 123], the pIC50 was 7.38. On to `CC(C)Nc1cc(-c2cnn3cc(Cl)cnc23)ncc1C(=O)N[C@@H]1CC[C@@H](CO)OC1` [Example 77, 6-(6-chloropyrazolo[1,5-a]pyrimidin-3-yl)-N-((3R,6S)-6-(hydroxymethyl)tetrahydro-2H-pyran-3-yl)-4-(isopropylamino)nicotinamide], for which the pIC50 was 7.00. For the compound `CC(C)Nc1cc(-c2cnc3ccc(NCC(C)(C)O)nn23)ncc1C(=O)NC[C@@H](F)C(C)(C)O` [Example 151, (R)—N-(2-fluoro-3-hydroxy-3-methylbutyl)-6-(6-((2-hydroxy-2-methylpropyl)amino)imidazo[1,2-b]pyridazin-3-yl)-4-(isopropylamino)nicotinamide], the pIC50 was 7.96. In the case of `CC(C)(O)[C@H](F)CNC(=O)c1cnc(-c2cnn3cc(C#N)cnc23)cc1N[C@H]1COC[C@@H]1F` (single isomer, unassigned) [Example 117] it was 7.41. The figure for `CC(C)(F)CCNC(=O)c1cnc(-c2cnn3cc(Cl)cnc23)cc1NC1COC1` [Example 12, 6-(6-chloropyrazolo[1,5-a]pyrimidin-3-yl)-N-(3-fluoro-3-methylbutyl)-4-(oxetan-3-ylamino)nicotinamide] is 7.04; for `CC(C)(O)[C@H](F)CNC(=O)c1cnc(-c2cnn3cc(Cl)cnc23)cc1NCC(F)(F)F` [Example 64, (R)-6-(6-chloropyrazolo[1,5-a]pyrimidin-3-yl)-N-(2-fluoro-3-hydroxy-3-methylbutyl)-4-((2,2,2-trifluoroethyl)amino)nicotinamide] it is 8.30; for `C[C@H](Nc1cc(-c2cnn3cc(C#N)cnc23)ncc1C(=O)NC[C@@H](F)C(C)(C)O)C(C)(C)O` [Example 100, 6-(6-cyanopyrazolo[1,5-a]pyrimidin-3-yl)-N—((R)-2-fluoro-3-hydroxy-3-methylbutyl)-4-(((S)-3-hydroxy-3-methylbutan-2-yl)amino)nicotinamide] it is 7.03. Consider `CC(C)(O)[C@H](F)CNC(=O)c1cnc(-c2cnn3cccnc23)cc1NC1CCOCC1` [Example 126, (R)—N-(2-fluoro-3-hydroxy-3-methylbutyl)-6-(pyrazolo[1,5-a]pyrimidin-3-yl)-4-((tetrahydro-2H-pyran-4-yl)amino)nicotinamide], for which the pIC50 was 7.66. In the case of `CC(C)Nc1cc(-c2cnn3cc(C4CC4)cnc23)ncc1C(=O)NC[C@@H](F)C(C)(C)O` [Example 128, (R)-6-(6-cyclopropylpyrazolo[1,5-a]pyrimidin-3-yl)-N-(2-fluoro-3-hydroxy-3-methylbutyl)-4-(isopropylamino)nicotinamide] it was 7.12; in that of `CC(C)(O)[C@H](F)CNC(=O)c1cnc(-c2cnc3ccc(NCCO)nn23)cc1NC1COC1` [Example 140, (R)—N-(2-fluoro-3-hydroxy-3-methylbutyl)-6-(6-((2-hydroxyethyl)amino)imidazo[1,2-b]pyridazin-3-yl)-4-(oxetan-3-ylamino)nicotinamide], 8.22; in that of `CC[C@H](O)CNc1cc(-c2cnn3cc(C#N)cnc23)ncc1C(=O)NC[C@@H](F)C(C)(C)O` [Example 125, 6-(6-cyanopyrazolo[1,5-a]pyrimidin-3-yl)-N—((R)-2-fluoro-3-hydroxy-3-methylbutyl)-4-(((S)-2-hydroxybutyl)amino)nicotinamide], 7.25. In the case of `CC(C)Nc1cc(-c2cnn3cc(Cl)cnc23)ncc1C(=O)NCCc1ccc(S(N)(=O)=O)cc1` [Example 26, 6-(6-chloropyrazolo[1,5-a]pyrimidin-3-yl)-4-(isopropylamino)-N-(4-sulfamoylphenethyl)nicotinamide] it was 8.10; in that of `COC1CCC(F)(CCNC(=O)c2cnc(-c3cnn4cc(Cl)cnc34)cc2NC2COC2)CC1` (stereo not shown) [Example 17, 6-(6-chloropyrazolo[1,5-a]pyrimidin-3-yl)-N-(2-(1-fluoro-4-methoxycyclohexyl)ethyl)-4-(oxetan-3-ylamino)nicotinamide], 7.72. In the case of `CC(C)Nc1cc(-c2cnc(-c3cccc(C#N)c3)o2)ncc1C(=O)NC[C@@H](F)C(C)(C)O` [Example 155, (R)-6-(2-(3-cyanophenyl)oxazol-5-yl)-N-(2-fluoro-3-hydroxy-3-methylbutyl)-4-(isopropylamino)nicotinamide], the pIC50 was 7.26. As for `CC(C)Nc1cc(-c2cnn3cc(Cl)cnc23)ncc1C(=O)Nc1cnn(CC(=O)NC[C@@H](F)C(C)(C)O)c1` [Example 10, (R)-6-(6-chloropyrazolo[1,5-a]pyrimidin-3-yl)-N-(1-(2-((2-fluoro-3-hydroxy-3-methylbutyl)amino)-2-oxoethyl)-1H-pyrazol-4-yl)-4-(isopropylamino)nicotinamide], the pIC50 is 7.00. The figure for `CC(C)(O)[C@H](F)CNC(=O)c1cnc(-c2cnn3cc(C#N)cnc23)cc1NCC1(O)COC1` [Example 121, (R)-6-(6-cyanopyrazolo[1,5-a]pyrimidin-3-yl)-N-(2-fluoro-3-hydroxy-3-methylbutyl)-4-(((3-hydroxyoxetan-3-yl)methyl)amino)nicotinamide] is 7.28; for `CC(Nc1cc(-c2cnn3cc(C#N)cnc23)ncc1C(=O)NC[C@@H](F)C(C)(C)O)c1cccnc1` (stereo partly drawn) [Example 113, 6-(6-cyanopyrazolo[1,5-a]pyrimidin-3-yl)-N—((R)-2-fluoro-3-hydroxy-3-methylbutyl)-4-((1-(pyridin-3-yl)ethyl)amino)nicotinamide] it is 7.28; for `COC1CCC(O)(CCNC(=O)c2cnc(-c3cnn4cc(Cl)cnc34)cc2NC2COC2)CC1` (stereo not shown) [Example 79, 6-(6-chloropyrazolo[1,5-a]pyrimidin-3-yl)-N-(2-(1-hydroxy-4-methoxycyclohexyl)ethyl)-4-(oxetan-3-ylamino)nicotinamide] it is 7.85. With `CNC(=O)[C@H]1CC[C@H](NC(=O)c2cnc(-c3cnn4cc(C#N)cnc34)cc2NCC(C)(C)F)CC1` [Example 102, 6-(6-cyanopyrazolo[1,5-a]pyrimidin-3-yl)-4-((2-fluoro-2-methylpropyl)amino)-N-((1r,4r)-4-(methylcarbamoyl)cyclohexyl)nicotinamide], the pIC50 is 7.10.
